The source of these data is patent publication US8236340B2, “Drug formulations for coating medical devices” (REVA Medical, Inc., priority 2003, dated 2012).

Series [1] can be described thus: Physical stability of drug coated on balloon from dimethylsulfoxide/ethanol solution. It is filed as physicochemical. An excerpt:
Initially, the deposited lipid form a translucent film, but within an hour or so the deposited material slowly transforms to a white crystallite appearance. The deposition uniformity as measured by microscopy is spotty across the balloon surface. After several days, the white powder continues to transform until it flakes off the balloon and is no longer believed to be in an available state. Decreased availability may be described as the dissolution/deaggregation time of the solid relative to deposition and diffusion within the artery, which prevents it from exerting its effect. Currently, to study the effect of C6-ceramide in animal models, the DMSO/ethanol formulation containing C6-ceramide is coated onto the balloon just prior to insertion into the artery. The role of the solvent is to keep the lipid material in an available film-like state sufficient for it to be rapidly deposited and absorbed quickly in the artery, where it is shown to exert an effect within 15 minutes. However, organic solvents, in which the drug is very soluble, tend to evaporate rapidly and the solvents may also penetrate and affect the balloon performance. Alternative solvents and formulations are needed that permit the drug to remain in a dissolved state yet remain physically stable without changing with time.

A short description of series [2]: Solubility/dispersibility of drug in the three formulation approaches. It is filed as physicochemical. The settings on record: all three formulation approaches; all components first dissolved in a volatile solvent such as ethanol. An excerpt: In all cases the drug was coated onto a balloon from an ethanol solution containing C6-ceramide and the other solvents in each formulation. Once the ethanol evaporated from the surface of the device, the drug was uniformly dispersed over the surface and dissolved within the non-volatile solvent(s). The ethanol was useful in that it decreased the viscosity of the oil/drug mixture thereby promoting uniform coating.

The test system of series [3] is smooth muscle cell (SMC) proliferation. The settings on record: cited from earlier work.

In the case of `CCCCCCCCCCCCC/C=C/[C@@H](O)[C@H](CO)NC(=O)CCCCC` [C6-ceramide], the “physical form of deposited drug over time” value in series [1] is recorded as “physical form of the drug changes with time”. In series [2], the “solubility/dispersibility in formulation approaches” value is on record as “sufficiently soluble and/dispersible”. Also, the “time to initiate activity” value in series [3] (after application of a single dose from an angioplasty balloon) was no more than 15 min. Moreover, the SMC proliferation result in series [3] (in vitro cell culture and in vivo (rabbit carotid model and pig coronary)) was “inhibit SMC proliferation”.
